Reference: patent EP1147102B1, “HETEROARYL ACETYLENIC SULFONAMIDE AND PHOSPHINIC ACID AMIDE HYDROXAMIC ACID TACE INHIBITORS” (Wyeth Holdings Corporation, priority 1999, dated 2000)

System: THP-1 cells
Experiment: Human monocytic THP-1 cell differentiation assay for soluble proteins (THP soluble protein assay)
Type: cell-based
Settings: LPS-stimulated THP-1 cells
Text: Mitogenic stimulation of THP-1 cells cause differentiation into macrophage like cells with concomitant secretion of tumor necrosis factor (TNF-α) and TNF receptor (TNF-R p75/80 and TNF-R p55/60) and Interleukin-8 (IL-8), among other proteins. In addition, non-stimulated THP-1 cells shed both the p75/80 and the p55/60 receptors over time. The release of membrane bound TNF-α and possibly TNF-R p75/80 and TNF-R p55/60, but not IL-8, is mediated by an enzyme called TNF-α converting enzyme or TACE.
THP-1 cells (from ATCC) are a human monocytic cell line which were obtained from the peripheral blood of a person with acute monocytic leukemia. […]
To perform an assay, the THP-1 cells are co-incubated in a 24 well plate with […] of a 24 mg/ml stock of Lipopolysacharide (LPS) (Calbiochem Lot# B13189) at 37°C in 5% CO2 at a concentration of 1.091 x 10^6 cells/ml (1.1 ml/well) for a total of 24 hours. […] Compounds can be evaluated for their effect on basal (non-stimulated) shedding of the receptors by replacing the LPS with […] of THP-1 media. […]
In addition, at the 24 hours timepoint, and the cells for each treatment group are collected by resuspension in 500 µl/well of THP-1 media and transferred into a FACS tube. […] The samples are run on a Becton Dickinson FaxCaliber FLOW cytometry machine and the amount of dye taken up by each cell is measured in the high red wavelength (FL3). […]

With `CC#CCOc1ccc(S(=O)(=O)N(C)c2c(C(=O)NO)cc(OC)nc2OC)cc1` [Example 33, 3-[Methyl-(4-but-2-ynyloxy-benzenesulfonyl)-amino]-N-hydroxy-2,6-dimethoxyisonicotinamide] the inhibition at 3 µM was 31%.
